From patent publication US12171801B2, “Compositions and related methods for controlling vector-borne diseases” (priority 2017, dated 2024)
Entries after “also recorded” stand apart in the source; their conditions may differ.

Experiments:
[1] = test system: Asaia; test: Asaia quantification by qPCR in midguts of azithromycin blood-fed mosquitoes; assay type: in vivo, Anopheles coluzzii; conditions: azithromycin 0.1, 1 or 5 μg/ml in blood meals; midgut
Protocol: Therapeutic design: Blood meals mixed with azithromycin solutions are formulated with final antibiotic concentrations of 0 (negative control), 0.1, 1, or 5 μg/ml in 1 mL of blood.
Azithromycin solutions are made by dissolving azithromycin (SIGMA-ALDRICH, PZ0007) in DMSO. Different volumes of azithromycin solution are added to fresh blood to total 1 mL in preparation for blood meals. The final azithromycin concentrations in the blood are 0 (just solvent as control solution), 0.1, 1, or 5 μg/ml.
For each Plasmodium infection, at least 100 age-matched, 2- to 3-day-old, mosquitoes per condition are offered a control or experimental blood meal from a membrane-feeding device (2 ml Eppendorf tube) covered with parafilm and kept at 37° C. and nonengorged mosquitoes are removed. Meals are given every four days for a total of three blood meals. […] Deaths are counted daily and carcasses are removed and stored for Asaia analysis as described herein. […]
Before dissection, mosquitoes are immersed in 70% ethanol for 5 minutes then rinsed 3 times in sterile phosphate-buffered saline (PBS) to kill and remove surface bacteria, thus minimizing sample contamination with cuticle bacteria during dissection. […] The 16S ribosomal DNA (rDNA) is used for Asaia quantification and is shown as a ratio of the Anopheles housekeeping gene 40S ribosomal protein S7 (Vector-Base gene ID AGAP010592). […]

[2] = test system: Anopheles coluzzii mosquitoes; test: Survival of mosquitoes given azithromycin blood meals; assay type: in vivo; conditions: azithromycin 0.1, 1 or 5 μg/ml in blood meals
Protocol: For each Plasmodium infection, at least 100 age-matched, 2- to 3-day-old, mosquitoes per condition are offered a control or experimental blood meal from a membrane-feeding device (2 ml Eppendorf tube) covered with parafilm and kept at 37° C. and nonengorged mosquitoes are removed. Meals are given every four days for a total of three blood meals. Between the blood meals, mosquitoes are provided with a cotton pad moistened with distilled water for oviposition. Unfed mosquitoes are not removed after the second and later blood meals. Deaths are counted daily and carcasses are removed and stored for Asaia analysis as described herein. At least 50 mosquitoes per concentration of azithromycin are used for each replicate. At the end of the last blood meal, mosquitoes are kept for 12 hours before dissection.
The survival rates of mosquitoes treated with azithromycin are compared to the mosquitoes treated with the negative control.

[3] = test system: Acyrthosiphon pisum aphids; test: Aphid survival monitoring; assay type: in vivo
[4] = test system: Acyrthosiphon pisum aphids; test: Aphid developmental stage monitoring; assay type: in vivo; conditions: for aphids that did not mature further than the 4rd instar stage: 11 days post-treatment
Protocol: (§1) In addition, the developmental stage (1st, 2nd, 3rd, 4th, 5th instar) was determined daily throughout the experiment. Once an aphid reached the 4th instar stage, they were given their own artificial feeding system in a deep petri dish so that fecundity could be monitored once they reached adulthood.
(§2) Each treatment group received approximately the same number of individuals from each of the collection plant. For each treatment, 20 aphids were placed onto each leaf. Aphids were monitored daily for survival and dead aphids were removed when they were discovered. In addition, the developmental stage (1st, 2nd, 3rd, 4th, 5th instar, and 5 R, representing a reproducing 5th instar) was determined daily throughout the experiment. Pictures of aphids were taken throughout the experiment to evaluate size differences between treatment groups.
Aphids LSR-1 (which harbor only Buchnera), Acyrthosiphon pisum were grown on fava bean plants (Vroma vicia faba from Johnny's Selected Seeds) in a climate-controlled incubator (16 h light/8 h dark photoperiod; 60±5% RH; 25±2° C.). Prior to being used for aphid rearing, fava bean plants were grown in potting soil at 24° C. with 16 h of light and 8 h of darkness. To limit maternal effects or health differences between plants, 5-10 adults from different plants were distributed among 10 two-week-old plants, and allowed to multiply to high density for 5-7 days. For experiments, first and second instar aphids were collected from healthy plants and divided into 2 different treatment groups: 1) negative control (leaf injected with water plus blue food coloring) and 2) leaf injected with 50 μg/ml rifampicin in water plus blue food coloring. Each treatment group received approximately the same number of individuals from each of the collection plants. For treatment, rifampicin stock solution (25 mg/ml in 100% methanol) was diluted to 50 μg/ml in water plus blue food coloring. The solution was then placed into a 1.5 ml Eppendorf tube with a fava bean stem perfused with the solutions and the opening of the tube was closed using parafilm. This feeding system was then placed into a deep petri dish (Fisher Scientific, Cat #FB0875711) and aphids were applied to the leaves of the plant. For each treatment, 74-81 aphids were placed onto each leaf. The feeding systems were changed every 2-3 days throughout the experiment. Aphids were monitored daily for survival and dead aphids were removed from the deep petri dish when they were discovered. In addition, the developmental stage (1st, 2nd, 3rd, 4th, 5th and 5 R (5th that has reproduced) instar) was determined daily throughout the experiment.
In addition, the developmental stage (1st 2nd, 3rd, 4th, 5th and 5 R (5th that has reproduced) instar) was determined daily throughout the experiment.
(§3) In addition, the developmental stage (1st, 2nd, 3rd, 4th, 5th, and 5 R (5th that has reproduced) instar) was determined daily throughout the experiment.
In addition, the developmental stage (1st, 2nd, 3rd, 4th, 5th and 5 R (5th that has reproduced) instar) was determined daily throughout the experiment.
In addition, the developmental stage (1st, 2nd, 3rd, 4th, 5th, and 5 R (5th instar aphids that are reproducing) instar) was determined daily throughout the experiment.
In addition, the developmental stage (1st, 2nd, 3rd 4th and 5th instar) was determined daily throughout the experiment.
as §1, with “5th, and 5 R (5th that has reproduced)” for “5th”
as §3

[5] = test system: Buchnera; test: Buchnera/aphid DNA copy number by qPCR; assay type: in vivo, Acyrthosiphon pisum
[6] = test system: Acyrthosiphon pisum aphids; test: Aphid fecundity; assay type: in vivo; conditions: 10 or 100 uM
Protocol: as §1
(§4) For adult aphids, new nymphs were counted daily and then discarded. At the end of the experiments, fecundity was determined as the mean number of offspring produced daily once the aphid reached adulthood. Pictures of aphids were taken throughout the experiment to evaluate size differences between treatment groups.
as §1, with “5th, and 5 R (5th that has reproduced)” for “5th”
(§5) For adult aphids, new nymphs were counted daily and then discarded. At the end of the experiments, fecundity was measured in two ways: 1) the mean day at which the first offspring for the treatment group was determined and 2) the mean number of offspring produced daily once the aphid reached adulthood. […]
In addition, the developmental stage (1st, 2nd, 3rd, 4th, 5th instar) was determined daily throughout the experiment. […]

[7] = test system: Acyrthosiphon pisum aphids; test: Aphid size (body area) from images; assay type: in vivo; conditions: 10 or 100 uM in artificial diet, 3 days post-treatment
Protocol: as §4
as §2, with “Pictures of aphids were taken throughout the experiment to evaluate size differences between treatment groups.” left out
as §5
Aphids LSR-1 (which harbor only Buchnera), Acyrthosiphon pisum were grown on fava bean plants (Vroma vicia faba from Johnny's Selected Seeds) in a climate-controlled incubator (16 h light/8 h dark photoperiod; 60±5% RH; 25±2° C.). […] Aphids were monitored daily for survival and dead aphids were removed from the deep petri dish when they were discovered. […]

[8] = test system: gram-negative and gram-positive bacteria as well as fungi; conditions: cited from earlier work
[9] = leaf coating, 10 uM in 0.025% Silwet L-77

CC[C@H]1OC(=O)[C@H](C)[C@@H](O[C@H]2C[C@@](C)(OC)[C@@H](O)[C@H](C)O2)[C@H](C)[C@@H](O[C@@H]2O[C@H](C)C[C@H](N(C)C)[C@H]2O)[C@](C)(O)C[C@@H](C)CN(C)[C@H](C)[C@@H](O)[C@]1(C)O [azithromycin]
Asaia specific genes (16S rDNA qPCR, ratio to S7) [1]: reduction of Asaia specific genes
survival rate of mosquitoes [2]: decreased compared to the control

Cc1cc2c(C(C)C)c(O)c(O)c(C=O)c2c(O)c1-c1c(C)cc2c(C(C)C)c(O)c(O)c(C=O)c2c1O [gossypol, gossypol acetic acid]
time after which aphids began dying ([3]; 0.5%, through plants): 2 days
time by which all aphids succumbed to treatment ([3]; 0.5%, through plants): ≤ 4 days

CC(=O)CCC(=O)O [levulinic acid]
aphids that did not mature further than the 4rd instar stage ([4]; 0.03%): ~23%
aphid development ([4]; 0.03 or 0.3% in water, leaf injection and through plant, eNASCO): delayed aphid development
aphids that did not mature further than the 4rd instar stage ([4]; 0.3%): ~63%
aphid survival ([3]; 0.03%, 11-day experiment): higher mortality compared to control treated aphids
aphid survival ([3]; 0.03 or 0.3%): dose-dependent decrease in survival; also recorded: decrease in insect survival
aphid survival ([3]; 0.3%, 11-day experiment): significantly less

CC(C)(CO)[C@@H](O)C(=O)NCCCO [pantothenol]
aphid development ([4]; 10 or 100 uM in artificial diet without essential amino acids, through plants, eNASCO): delayed aphid development
aphid development [4, 9]: did not affect aphid development
aphid survival ([3]; 10 or 100 uM in artificial diet, through plants): increased aphid mortality; also recorded: negatively affected aphid fitness
aphid survival [3, 9]: lower survival rates
aphid survival ([3]; leaf coating, 10 uM in 0.025% Silwet L-77, listed as Pantothenol): aphid death
Buchnera/aphid DNA copies ([5]; 10 or 100 uM, 8 days): does not affect Buchnera/aphid DNA copy number directly
Buchnera/aphid DNA copies ([5]; 10 or 100 uM, 8 days, listed as Pantothenol): did not affect endosymbiotic Buchnera
aphid reproduction [6]: loss of aphid reproduction
aphid reproduction ([6]; listed as Pantothenol): loss of reproduction
aphid size (area) [7]: drastic effect; also recorded: smaller in area than untreated controls

O=C/C=C/c1ccccc1 [trans-cinnemaldehyde]
aphid development ([4]; 0.05%, 0.5% and 5% in water, leaf perfusion and through plants, 3 days): delayed
aphid development ([4]; 0.05%, 0.5% and 5% in water, leaf perfusion and through plants, 3 days, listed as Trans-cinnemaldehyde): delayed aphid development
aphid development (stage reached) ([4]; 5%): remained at the 1st instar stage throughout the course of the experiment
aphid survival ([3]; 0.05%, 0.5%, and 5%): dose-dependent decrease in survival; also recorded: significantly lower
Buchnera/aphid DNA copies ([5]; lowest concentration (0.5%), 3 days): high ratios of Buchnera/aphid DNA copies

B1: NCR335: NCR peptide, SEQ ID NO: 197 (peptide)
chain: MKMRIHMAQIIMFFYALIIFLSPFLVDRRSFPSSFVSPKSYTSEIPCKATRDCPYELYYETKCVDSLCTY
antimicrobial activity [8]: effective against gram-negative and gram-positive bacteria as well as fungi
